Measurements as given in PMC12679610, “Impact of supersaturation on growth, critical radius, and size in neomycin nanoparticle crystallization using anti-solvent and CTAB” (RSC Advances, 2025).

Tests used:
[1] = Solubility of neomycin sulfate in water-acetone in the presence of CTAB; assay type: physicochemical
Protocol: In this section, the method for the synthesis of neomycin nanoparticles is explained in detail. First, an exact amount of neomycin powder (purity ≥ 95%) was weighed using a digital analytical balance (accuracy: […]) based on the desired equilibrium concentration. The weighed neomycin was then added to 10 g of double-distilled water (25 °C). To ensure complete dissolution, the mixture was homogenized using a magnetic stirrer at controlled speeds of 300, 350, 400, and 450 rpm for 20 minutes. This range of stirring speeds was selected to investigate the effect of shear force on solution homogeneity. After confirming the homogeneity of the neomycin solution, a predetermined amount of CTAB surfactant with a concentration established from prior studies was added to the beaker. To achieve optimal mixing, the stirring system was activated at a constant speed between 300 and 450 rpm, and the mixing process continued until equilibrium was reached. The solution temperature was continuously monitored using a calibrated digital thermometer (±0.1 °C). A turbidity sensor was installed 2 cm from the crystallizer wall to measure changes in turbidity. Pure acetone (HPLC grade) was added dropwise (0.02 mL per drop) at 5-minute intervals. The first signs of physical change (e.g., localized cloudiness) were recorded as the initial saturation point. Acetone addition continued until stable turbidity (supersaturation) was achieved under isothermal conditions (25 °C). The induction time (the interval between initial saturation and supersaturation), as clearly depicted in Fig. 1, Section C (the induction time segment of steps 1 to 4), was measure using a synchronized turbidimeter and reaction timer data. To ensure reproducibility, the entire process was repeated in four independent trials under controlled conditions (constant temperature, humidity, and lighting).
This study investigated the solubility enhancement of neomycin in the presence of CTAB stabilizer through controlled dynamic shock application. In contrast to the reference study,[29] which utilized PVP at a mixing speed of 300 rpm, the present experimental design involved the addition of 0.3 g neomycin to a 10 g solvent–antisolvent mixture under 350 rpm agitation, incorporating intermittent dynamic shocks consisting of 3-second pulses at 380 rpm. […] This significant improvement stems from synergistic effects between: (1) CTAB's molecular interactions (ionic complexation with neomycin molecules, surface tension reduction, and stable colloidal environment through spherical micelle formation) and (2) dynamic shock-induced phenomena (enhanced antisolvent penetration and uniform stabilizer distribution).[73] […] The findings underscore the critical importance of concurrent optimization of physicochemical parameters in antisolvent crystallization processes for pharmaceutical nanoparticles.[74]
(§1) This study comprehensively investigated the influence of CTAB surfactant on neomycin crystallization. […] The supersaturation (S), as the primary driving force, directly affects the induction time, critical radius, growth rate, solubility, nanoparticle size, and nucleation mechanism.[33] CTAB operates through selective adsorption on crystalline surfaces, substantially influencing the nucleation pathway.[75,76] […] Quantitative data for these parameters are presented in Table 2, with the growth rate (intensity %) and nanoparticle size data being experimentally derived from DLS analysis.

[2] = Critical nucleus radius calculated from classical nucleation theory (eqn S16); assay type: physicochemical; settings: CTAB 0.6 g kg^−1, 25 °C
Source text: as §1
As previously explored in relation to supersaturation, growth rate, and nanoparticle size (Fig. 16), the experimental results shown in Fig. 17 further illustrate the critical radius, growth kinetics, and nanoparticle size across varying supersaturation levels.[86] Based on data obtained from DLS analysis and critical radius calculations (eqn S16), it is observed that decreasing supersaturation leads to a significant increase in crystal growth rates, resulting in the formation of larger nanoparticles.[14–16,87] […] This phenomenon follows fundamental crystallization kinetics principles where, at high supersaturation levels, the elevated concentration of solute species leads to the formation of a greater number of primary nuclei.[89] Simultaneously, the distribution of solute molecules among these numerous nuclei results in decreased growth rates for crystals, ultimately producing smaller nanoparticles with a […] size distribution.[86] The role of the CTAB stabilizer in this system is particularly crucial. Through surface adsorption mechanisms, CTAB not only prevents nanoparticle aggregation but also precisely modulates growth kinetics, enabling better control over final particle dimensions.[90] These synergistic effects contribute to the formation of colloidally stable nanoparticles with uniform size distributions. An important observation is the direct correlation between nucleation duration and critical particle size, where extended nucleation times cause the formation of smaller particles.[91] Furthermore, dynamic parameters such as agitation rate and controlled shock pulses serve as effective tools for fine-tuning nanoparticle characteristics.[92]

## NC[C@@H]1O[C@H](O[C@H]2[C@@H](O)[C@H](O[C@@H]3[C@@H](O)[C@H](N)C[C@H](N)[C@H]3O[C@H]3O[C@H](CN)[C@@H](O)[C@H](O)[C@H]3N)O[C@@H]2CO)[C@H](N)[C@@H](O)[C@@H]1O.O=S(=O)(O)O [neomycin sulfate]
[1]; 300 rpm, initial neomycin 20 g kg^−1, S 1.18, CTAB 0.6 g kg^−1, 25 °C
  Solubility: 17 g/kg
[1]; 300 rpm, initial neomycin 20 g kg^−1, S 1.21, CTAB 0.6 g kg^−1, 25 °C
  Solubility: 16 g/kg
[1]; 300 rpm, initial neomycin 20 g kg^−1, S 1.33, CTAB 0.6 g kg^−1, 25 °C
  Solubility: 15 g/kg
[1]; 300 rpm, initial neomycin 20 g kg^−1, S 1.45, CTAB 0.6 g kg^−1, 25 °C
  Solubility: 13.8 g/kg
[1]; 300 rpm, initial neomycin 20 g kg^−1, S 1.66, CTAB 0.6 g kg^−1, 25 °C
  Solubility: 12 g/kg
[1]; 350 rpm, initial neomycin 30 g kg^−1, S 1.2, CTAB 0.6 g kg^−1, 25 °C
  Solubility: 25 g/kg
[1]; 350 rpm, initial neomycin 30 g kg^−1, S 1.25, CTAB 0.6 g kg^−1, 25 °C
  Solubility: 24 g/kg
[1]; 350 rpm, initial neomycin 30 g kg^−1, S 1.28, CTAB 0.6 g kg^−1, 25 °C
  Solubility: 23.5 g/kg
[1]; 350 rpm, initial neomycin 30 g kg^−1, S 1.43, CTAB 0.6 g kg^−1, 25 °C
  Solubility: 21.1 g/kg
[1]; 400 rpm, initial neomycin 40 g kg^−1, S 1.29, CTAB 0.6 g kg^−1, 25 °C
  Solubility: 31 g/kg
[1]; 400 rpm, initial neomycin 40 g kg^−1, S 1.379, CTAB 0.6 g kg^−1, 25 °C
  Solubility: 29 g/kg
[1]; 400 rpm, initial neomycin 40 g kg^−1, S 1.48, CTAB 0.6 g kg^−1, 25 °C
  Solubility: 27 g/kg
[1]; 400 rpm, initial neomycin 40 g kg^−1, S 1.66, CTAB 0.6 g kg^−1, 25 °C
  Solubility: 24 g/kg
[1]; 400 rpm, initial neomycin 40 g kg^−1, S 1.9, CTAB 0.6 g kg^−1, 25 °C
  Solubility: 21 g/kg
[1]; 450 rpm, initial neomycin 50 g kg^−1, S 1.351, CTAB 0.6 g kg^−1, 25 °C
  Solubility: 37 g/kg
[1]; 450 rpm, initial neomycin 50 g kg^−1, S 1.47, CTAB 0.6 g kg^−1, 25 °C
  Solubility: 34 g/kg
[1]; 450 rpm, initial neomycin 50 g kg^−1, S 1.666, CTAB 0.6 g kg^−1, 25 °C
  Solubility: 30 g/kg
[1]; 450 rpm, initial neomycin 50 g kg^−1, S 1.785, CTAB 0.6 g kg^−1, 25 °C
  Solubility: 28 g/kg
[2]; 300 rpm, initial neomycin 20 g kg^−1, S 1.18
  Critical radius: 1.689 nm
[2]; 300 rpm, initial neomycin 20 g kg^−1, S 1.21
  Critical radius: 1.467 nm
[2]; 300 rpm, initial neomycin 20 g kg^−1, S 1.33
  Critical radius: 0.981 nm
[2]; 300 rpm, initial neomycin 20 g kg^−1, S 1.45
  Critical radius: 0.753 nm
[2]; 300 rpm, initial neomycin 20 g kg^−1, S 1.66
  Critical radius: 0.552 nm
[2]; 350 rpm, initial neomycin 30 g kg^−1, S 1.2
  Critical radius: 1.534 nm
[2]; 350 rpm, initial neomycin 30 g kg^−1, S 1.25
  Critical radius: 1.254 nm
[2]; 350 rpm, initial neomycin 30 g kg^−1, S 1.28
  Critical radius: 1.133 nm
[2]; 350 rpm, initial neomycin 30 g kg^−1, S 1.43
  Critical radius: 0.782 nm
[2]; 350 rpm, initial neomycin 30 g kg^−1, S 1.67
  Critical radius: 0.545 nm
[2]; 400 rpm, initial neomycin 40 g kg^−1, S 1.29
  Critical radius: 1.099 nm
[2]; 400 rpm, initial neomycin 40 g kg^−1, S 1.379
  Critical radius: 0.957 nm
[2]; 400 rpm, initial neomycin 40 g kg^−1, S 1.48
  Critical radius: 0.714 nm
[2]; 400 rpm, initial neomycin 40 g kg^−1, S 1.66
  Critical radius: 0.552 nm
[2]; 400 rpm, initial neomycin 40 g kg^−1, S 1.9
  Critical radius: 0.436 nm
[2]; 450 rpm, initial neomycin 50 g kg^−1, S 1.351
  Critical radius: 0.932 nm
[2]; 450 rpm, initial neomycin 50 g kg^−1, S 1.408
  Critical radius: 0.817 nm
[2]; 450 rpm, initial neomycin 50 g kg^−1, S 1.47
  Critical radius: 0.726 nm
[2]; 450 rpm, initial neomycin 50 g kg^−1, S 1.666
  Critical radius: 0.548 nm
[2]; 450 rpm, initial neomycin 50 g kg^−1, S 1.785
  Critical radius: 0.483 nm
